US9409908B2 (priority 2012, dated 2016)
Counter-ions that a name gives are not always drawn. Like-named read-outs stand apart in the source and are kept apart here.

Assays:
[1] = target: purified human Factor XIa (Homo sapiens (Human), UniProt P03951); test: biochemical; type: biochemical
[2] = target: purified human plasma kallikrein (Homo sapiens (Human), UniProt P03952); test: biochemical; type: biochemical
Sequence of purified human plasma kallikrein (P03952 whole entry, looked up): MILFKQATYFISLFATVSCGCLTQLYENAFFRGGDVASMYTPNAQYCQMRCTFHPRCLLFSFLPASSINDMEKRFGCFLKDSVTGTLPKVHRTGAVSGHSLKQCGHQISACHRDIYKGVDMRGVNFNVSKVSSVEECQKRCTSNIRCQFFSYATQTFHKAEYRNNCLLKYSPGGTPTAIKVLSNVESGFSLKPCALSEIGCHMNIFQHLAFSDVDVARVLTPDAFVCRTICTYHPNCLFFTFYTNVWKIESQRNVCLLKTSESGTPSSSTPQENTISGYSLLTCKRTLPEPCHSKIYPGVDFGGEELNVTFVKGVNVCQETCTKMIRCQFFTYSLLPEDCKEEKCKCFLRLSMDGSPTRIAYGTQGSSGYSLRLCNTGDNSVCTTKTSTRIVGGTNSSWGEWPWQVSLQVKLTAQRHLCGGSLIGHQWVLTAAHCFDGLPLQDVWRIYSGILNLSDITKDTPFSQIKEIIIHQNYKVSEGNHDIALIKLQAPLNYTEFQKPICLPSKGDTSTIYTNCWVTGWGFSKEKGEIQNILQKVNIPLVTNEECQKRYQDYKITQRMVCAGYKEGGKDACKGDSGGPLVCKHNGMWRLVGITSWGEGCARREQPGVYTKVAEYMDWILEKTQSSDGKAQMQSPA
Sequence of purified human plasma kallikrein (P03952 whole entry partner, looked up): as the sequence (P03952 whole entry, looked up) above

Sequence of purified human Factor XIa (P03951 whole entry, looked up): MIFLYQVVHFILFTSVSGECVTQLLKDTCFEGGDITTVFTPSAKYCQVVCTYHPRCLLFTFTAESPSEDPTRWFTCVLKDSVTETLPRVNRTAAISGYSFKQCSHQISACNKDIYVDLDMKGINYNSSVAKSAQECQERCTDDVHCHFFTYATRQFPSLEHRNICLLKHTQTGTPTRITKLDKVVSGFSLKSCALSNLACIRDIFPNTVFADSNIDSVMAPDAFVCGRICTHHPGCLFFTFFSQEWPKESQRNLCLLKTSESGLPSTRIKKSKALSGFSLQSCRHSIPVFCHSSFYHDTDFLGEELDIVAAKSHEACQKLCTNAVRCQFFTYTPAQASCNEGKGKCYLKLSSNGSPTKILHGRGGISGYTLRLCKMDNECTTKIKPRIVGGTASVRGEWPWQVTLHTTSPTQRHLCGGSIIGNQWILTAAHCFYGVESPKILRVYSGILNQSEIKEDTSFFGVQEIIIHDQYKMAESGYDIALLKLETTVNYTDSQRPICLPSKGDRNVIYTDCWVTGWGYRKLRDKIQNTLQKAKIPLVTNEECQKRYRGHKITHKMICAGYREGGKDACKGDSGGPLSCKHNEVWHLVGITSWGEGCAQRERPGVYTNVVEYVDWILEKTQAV
Sequence of purified human Factor XIa (P03951 whole entry partner, looked up): as the sequence (P03951 whole entry, looked up) above

Structure (SMILES)	Ki ([1]; read-out: Factor XIa Ki) [nM]	Ki ([2]; read-out: Plasma Kallikrein Ki) [nM]	Ki [1] [nM]	Ki ([2]; Plasma Kallikrein Ki) [nM]
COC(=O)c1ccc2c(c1)-c1cccc(c1)[C@@H](N1CCC(c3cccc(Cl)c3F)=CC1=O)CCC[C@@H](C)C(=O)N2 [Example 169, Methyl (10R,14S)-14-[4-(3-chloro-2-fluorophenyl)-6-oxo-1,2,3,6-tetrahydropyridin-1-yl]-10-methyl-9-oxo-8-azatricyclo[13.3.1.0^2,7]nonadeca-1(18),2,4,6,15(19),16-hexaene-4-carboxylate]	> 417	768		
COC(=O)c1ccc2c(c1)-c1cccc(c1)[C@@H](N1CCC(c3c(C#N)ccc(Cl)c3F)=CC1=O)CCC[C@@H](C)C(=O)N2 [Example 170, Methyl (10R,14S)-14-[4-(3-chloro-6-cyano-2-fluorophenyl)-6-oxo-1,2,3,6-tetrahydropyridin-1-yl]-10-methyl-9-oxo-8-azatricyclo[13.3.1.0^2,7]nonadeca-1(18),2,4,6,15(19),16-hexaene-4-carboxylate]	46.6	7.73		
COC(=O)Nc1ccc2c(c1)NC(=O)[C@H](C)CCC[C@H](N1CCC(c3c(C(C)=O)ccc(Cl)c3F)=CC1=O)c1cccc-2c1 [Example 171, Methyl N-[(10R,14S)-14-[4-(6-acetyl-3-chloro-2-fluorophenyl)-6-oxo-1,2,3,6-tetrahydropyridin-1-yl]-10-methyl-9-oxo-8-azatricyclo[13.3.1.0^2,7]nonadeca-1(18),2,4,6,15(19),16-hexaen-5-yl]carbamate]	0.17	8.87		
COC(=O)c1ccc2c(c1)-c1cccc(c1)[C@H](N1CCC(c3c(Br)ccc(Cl)c3F)=CC1=O)CCC[C@@H](C)C(=O)N2 [Example 175, Methyl (10R,14R)-14-[4-(6-bromo-3-chloro-2-fluorophenyl)-6-oxo-1,2,3,6-tetrahydropyridin-1-yl]-10-methyl-9-oxo-8-azatricyclo[13.3.1.0^2,7]nonadeca-1(19),2,4,6,15,17-hexaene-4-carboxylate]	> 625	3810		
COC(=O)Nc1ccc2c(c1)NC(=O)[C@H](C)C(F)CC[C@H](N1CCC(c3c(F)ccc(Cl)c3F)=CC1=O)c1cc-2ccn1 (stereo partly drawn) [Example 180, Methyl N-[(10S,14S)-14-[4-(3-chloro-2,6-difluorophenyl)-6-oxo-1,2,3,6-tetrahydropyridin-1-yl]-11-fluoro-10-methyl-9-oxo-8,16-diazatricyclo[13.3.1.0^2,7]nonadeca-1(19),2(7),3,5,15,17-hexaen-5-yl]carbamate]	0.18	2.42		
COC(=O)Nc1ccc2c(c1)NC(=O)[C@H](C)CCC[C@H](N1CCC(c3c(-c4c[nH]nn4)ccc(Cl)c3F)=CC1=O)c1cc-2ccn1 [Example 182, Methyl N-[(10R,14S)-14-{4-[3-chloro-2-fluoro-6-(1H-1,2,3-triazol-4-yl)phenyl]-6-oxo-1,2,3,6-tetrahydropyridin-1-yl}-10-methyl-9-oxo-8,16-diazatricyclo[13.3.1.0^2,7]nonadeca-1(19),2(7),3,5,15,17-hexaen-5-yl]carbamate]	0.11	14.3		
CC(=O)Nc1ccc(Cl)c(F)c1C1=CC(=O)N([C@H]2CCC[C@@H](C)C(=O)Nc3ccccc3-c3ccnc2c3)CC1 [Example 183, N-(4-chloro-3-fluoro-2-{1-[(10R,14S)-10-methyl-9-oxo-8,16-diazatricyclo[13.3.1.0^2,7]nonadeca-1(19),2(7),3,5,15,17-hexaen-14-yl]-6-oxo-1,2,3,6-tetrahydropyridin-4-yl}phenyl)acetamide]	75.1	297		
C[C@@H]1CCC[C@H](N2CCC(c3c(-n4cnnn4)ccc(Cl)c3F)=CC2=O)c2cc(ccn2)-c2cc(F)ccc2NC1=O [Example 184, (10R,14S)-14-{4-[3-chloro-2-fluoro-6-(1H-1,2,3,4-tetrazol-1-yl)phenyl]-6-oxo-1,2,3,6-tetrahydropyridin-1-yl}-4-fluoro-10-methyl-8,16-diazatricyclo[13.3.1.0^2,7]nonadeca-1(19),2(7),3,5,15,17-hexaen-9-one]	< 0.05	2.51		
C[C@@H]1CCC[C@H](n2ccc(-c3c(F)ccc(Cl)c3F)cc2=O)c2cc(ccn2)-c2ccncc2NC1=O [Example 185, (10R,14S)-14-[4-(3-chloro-2,6-difluorophenyl)-2-oxo-1,2-dihydropyridin-1-yl]-10-methyl-5,8,16-triazatricyclo[13.3.1.0^2,7]nonadeca-1(19),2(7),3,5,15,17-hexaen-9-one]			22.8	47.4
COC(=O)c1ccc2c(c1)-c1ccnc(c1)[C@@H](N1CCC(c3c(C(F)(F)F)ccc(Cl)c3F)=CC1=O)CCC[C@@H](C)C(=O)N2 [Example 186, Methyl (10R,14S)-14-{4-[3-chloro-2-fluoro-6-(trifluoromethyl)phenyl]-6-oxo-1,2,3,6-tetrahydropyridin-1-yl}-10-methyl-9-oxo-8,16-diazatricyclo[13.3.1.0^2,7]nonadeca-1(19),2(7),3,5,15,17-hexaene-4-carboxylate]	57.9	60.5		
C[C@@H]1CCC[C@H](N2CCC(c3c(C(F)(F)F)ccc(Cl)c3F)=CC2=O)c2cc(ccn2)-c2cc(C(=O)O)ccc2NC1=O [Example 187, (10R,14S)-14-{4-[3-chloro-2-fluoro-6-(trifluoromethyl)phenyl]-6-oxo-1,2,3,6-tetrahydropyridin-1-yl}-10-methyl-9-oxo-8,16-diazatricyclo[13.3.1.0^2,7]nonadeca-1(19),2(7),3,5,15,17-hexaene-4-carboxylic acid]	0.44	17.4		
C[C@@H]1CCC[C@H](N2CCC(c3cc(Cl)ccc3-n3ccnn3)=CC2=O)c2cc(ccn2)-c2cc(F)ccc2NC1=O [Example 188, (10R,14S)-14-{4-[5-chloro-2-(1H-1,2,3-triazol-1-yl)phenyl]-6-oxo-1,2,3,6-tetrahydropyridin-1-yl}-4-fluoro-10-methyl-8,16-diazatricyclo[13.3.1.0^2,7]nonadeca-1(19),2(7),3,5,15,17-hexaen-9-one]	1.6	23.2		
COC(=O)Nc1ccc2c(c1)NC(=O)[C@H](C)CCC[C@H](N1CCC(c3c(F)ccc(Br)c3F)=CC1=O)c1cc-2ccn1 [Example 190, Methyl N-[(10R,14S)-14-[4-(3-bromo-2,6-difluorophenyl)-6-oxo-1,2,3,6-tetrahydropyridin-1-yl]-10-methyl-9-oxo-8,16-diazatricyclo[13.3.1.0^2,7]nonadeca-1(19),2,4,6,15,17-hexaen-5-yl]carbamate]	0.27	1.11		
COC(=O)Nc1ccc2c(c1)NC(=O)[C@H](C)CCC[C@H](N1CCC(c3c(C(C)=O)ccc(Cl)c3F)=CC1=O)c1cc(F)cc-2c1 [Example 191, Methyl N-[(10R,14S)-14-[4-(6-acetyl-3-chloro-2-fluorophenyl)-6-oxo-1,2,3,6-tetrahydropyridin-1-yl]-17-fluoro-10-methyl-9-oxo-8-azatricyclo[13.3.1.0^2,7]nonadeca-1(19),2,4,6,15,17-hexaen-5-yl]carbamate]	0.23	19.2		
C[C@@H]1CCC[C@H](N2CCC(c3c(F)ccc(Cl)c3F)=CC2=O)c2cc(ccn2)-c2cc(Br)c(N)cc2NC1=O [Example 193, (10R,14S)-5-amino-4-bromo-14-[4-(3-chloro-2,6-difluorophenyl)-6-oxo-1,2,3,6-tetrahydropyridin-1-yl]-10-methyl-8,16-diazatricyclo[13.3.1.0^2,7]nonadeca-1(19),2(7),3,5,15,17-hexaen-9-one, 2 TFA salt]	1.02	3.91		
